Results published in patent US20090197856A1, “ANTIVIRAL COMPOUNDS” (Genelabs Technologies, Inc., priority 2007, published 2009).

These compounds were tested against T1, NS5B (Hepatitis C virus genotype 1b, UniProt Q9WMX2) (assay: Polymerase assay, incorporation of radiolabeled GTP with biotinylated oligoG13 primer and polycytidylic acid RNA template). Conditions: polyC RNA template, biotin-oligoG13 primer, tritiated GTP, 3 nM NS5B, 30° C., 2 hours.
T1 construct: 3 nM NS5B, 20 nM polyC RNA template
T1 sequence (Q9WMX2 2420-3010): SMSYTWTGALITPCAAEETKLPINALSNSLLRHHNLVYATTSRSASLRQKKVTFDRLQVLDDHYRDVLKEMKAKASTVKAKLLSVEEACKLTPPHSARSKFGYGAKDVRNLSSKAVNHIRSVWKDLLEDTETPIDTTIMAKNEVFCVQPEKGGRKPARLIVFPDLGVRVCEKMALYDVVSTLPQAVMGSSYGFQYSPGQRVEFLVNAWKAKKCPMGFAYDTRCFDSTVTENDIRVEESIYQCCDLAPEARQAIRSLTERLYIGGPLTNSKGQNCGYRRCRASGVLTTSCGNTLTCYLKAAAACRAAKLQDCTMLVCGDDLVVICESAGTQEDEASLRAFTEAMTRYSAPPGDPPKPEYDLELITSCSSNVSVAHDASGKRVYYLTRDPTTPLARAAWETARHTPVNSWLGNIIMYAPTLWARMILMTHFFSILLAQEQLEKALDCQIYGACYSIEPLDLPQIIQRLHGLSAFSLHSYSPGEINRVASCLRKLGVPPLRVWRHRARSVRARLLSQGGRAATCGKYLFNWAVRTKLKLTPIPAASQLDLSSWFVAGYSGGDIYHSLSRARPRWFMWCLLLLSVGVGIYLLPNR
Type: biochemical
Description: The polymerase activity was also assayed by measuring incorporation of radiolabeled GTP into an RNA product using a biotinylated oligoG13 primer with a polycytidylic acid RNA template. Typically, the assay mixture (40 μL) contains 50 mM HEPES (pH 7.3), 2.5 mM magnesium acetate, 2 mM sodium chloride, 37.5 mM potassium acetate, 5 mM DTT, 0.4 U/mL RNasin, 2.5% glycerol, 3 nM NS5B, 20 nM polyC RNA template, 20 nM biotin-oligoG13 primer, and 0.2 μM tritiated guanosine triphosphate. Test compounds were initially dissolved and diluted in 100% DMSO and further diluted into aqueous buffer, producing a final concentration of 5% DMSO. Typically, compounds were tested at concentrations between 0.2 nM and 10 μM. Reactions were started with addition of tritiated guanosine triphosphate and allowed to continue at 30° C. for 2 hours. Reactions were quenched with 100 μL stop buffer containing 10 mM EDTA and 1 μg/mL streptavidin-coated scintillation proximity beads. Reaction plates were incubated at 4° C. for 10 hours and then incorporation of radioactivity was determined by scintillation counting. The table below lists the IC50 values of compounds determined using this procedure.

IC50 [nM]	SMILES
9	CCN(C)Cc1c(C(=O)N(C)Cc2ccccc2)n2c3c(cccc13)-c1c(C3CCCCC3)c3ccc(C(=O)O)cc3n1CCC2 [Compound 323]
6	CCN(C)Cc1c(C(=O)N2CCC(N(C)C)CC2)n2c3c(cccc13)-c1c(C3CCCCC3)c3ccc(C(=O)O)cc3n1CCC2 [Compound 324]
7	CCN(C)Cc1c(C(=O)N2CCN(C(C)=O)CC2)n2c3c(cccc13)-c1c(C3CCCCC3)c3ccc(C(=O)O)cc3n1CCC2 [Compound 325]
6	CCN(C)Cc1c(C(=O)N2CC[C@@H](NC(C)=O)C2)n2c3c(cccc13)-c1c(C3CCCCC3)c3ccc(C(=O)O)cc3n1CCC2 [Compound 326]
5.05	NC1CCN2CCn3c(c(C4CCCCC4)c4ccc(C(=O)O)cc43)-c3ccc(F)c1c32 (stereo not drawn) [Compound 448]
200	CC1(C)C(=O)N2CCn3c(c(C4CCCCC4)c4ccc(C(=O)O)cc43)-c3cccc(c32)[C@@H]1N [Compound 496, (4S)-4-amino-15-cyclohexyl-5,5-dimethyl-6-oxo-5,6,8,9-tetrahydro-4H-indolo[1′,2′:4,5][1,4]diazepino[6,7,1-ij]quinoline-12-carboxylic Acid]
23	CC1(C)CN2CCn3c(c(C4CCCCC4)c4ccc(C(=O)O)cc43)-c3cccc(c32)[C@@H]1N [Compound 497, (4R)-4-amino-15-cyclohexyl-5,5-dimethyl-5,6,8,9-tetrahydro-4H-indolo[1′,2′:4,5][1,4]diazepino[6,7,1-ij]quinoline-12-carboxylic Acid]
20	CC1(C)C(=O)N2CCn3c(c(C4CCCCC4)c4ccc(C(=O)O)cc43)-c3cccc(c32)[C@H]1N [Compound 498]
4	CC1(C)CN2CCn3c(c(C4CCCCC4)c4ccc(C(=O)O)cc43)-c3cccc(c32)[C@H]1N [Compound 499]
